Laboratory results reported in US6664271B1, “Immunopotentiator agents” (Eli Lilly and Company, priority 1999, dated 2003).
Marks after values point to notes of the source that are not given here.

What was measured:
chicken leukocytes = assay: cells; format: cell-based; details: for minimal effective concentration: Gallus gallus, Leukocyte, read-out: MSC (Minimum Stimulatory Concentration); for MTC (Maximum Tolerable Concentration prior to causing cytotoxicity): Hubbard/Peterson broiler, chicken, 72 h
Experimental: Various compounds of Formula I were evaluated for in vitro T-lymphocyte blastogenic activity with chicken leukocytes according to the steps described in the following procedure:
(a) Exsanguination step. The leukocytes were obtained from 3-6 week old Hubbard/Peterson broiler chickens. Initially, the chickens were rendered unconscious in a CO2 chamber. The chickens were then exsanguinated via cardiac puncture. In the exsanguination procedure, a syringe was connected to a needle, and the needle was inserted into the area at the base of the neck under the “V” formed by the breast and sternum. After the needle was properly inserted, continuous vacuum was applied to a syringe (connected to the needle) by pulling back on the plunger. It is important to promptly carry out this withdrawal action, because there is only a 10-15 seconds time period after the blood has starting flowing into the syringe before the blood coagulates, and becomes unusable. As soon as the syringe is full (or prior to complete filling if too much time has elapsed such that the blood begins to coagulate), the whole uncoagulated blood is transferred to a tube having the anticoagulant EDTA therein. The tube is then rotated to mix the whole blood and the EDTA. Alternatively, the whole blood can be withdrawn directly into a vacuum container already having EDTA therein, rather than into a syringe.
(b) Leukocyte isolation step. Numerous methods for isolating leukocytes from (uncoagulated) whole blood are known in the art. In a preferred method, the sterile whole blood was combined with methylcellulose (1.5:1). Any blood containing clots was discarded. The mixture was centrifuged at 30×g for ten minutes (300 rpm on Beckman GS-6R centrifuge). The top layer (leukocytes in supernatant) was decanted into a sterile 50 ml conical tube, while taking care to prevent contamination of the sample by red blood cells. The decanted layer was then centrifuged at 200×g for ten minutes (1500 rpm on the Beckman GS-6R centrifuge). The supernatant liquid was discarded, and the resulting cell “pellet” was retained.
The cells were then washed in a solution containing 10 ml PBS (phosphate buffered saline) and Gentamycin (gentamicin sulfate) at a concentration of 50 μg/ml. This solution was centrifuged at 100×g (1000 rpm on the Beckman centrifuge) for five minutes, and the supernatant liquid was discarded. The washing step (including the centrifuging at 100×g) was repeated to ensure complete removal of the methylcellulose. The use of media such as DMEM ([…]) was avoided in the washing steps, since such media may cause agglutination of the white blood cells. Finally, the cells were then suspended in an appropriate media, such as RPMI 1640 tissue cell culture medium, supplemented with phenol red, NaHCO3, and L-Glutamide. Supplemented RPMI 1640 is available from Sigma-Aldrich Chemical Co.
(c) Cell counting and cell viability step. The cells were counted and checked for viability using the Trypan Blue method of exclusion. 0.1 ml of the cell suspension was placed in a 4-5 ml small culture tube along with 0.7 ml HBSS (Hank's Buffered Saline Solution), available from Sigma-Aldrich, and 0.2 ml of a 0.4% solution of aqueous Trypan Blue stain, available from GIBCO BRL, of Grand Island, N.Y. The components were mixed thoroughly but gently, and allowed to sit for 5 minutes (no longer than 15 minutes). The components should not be exposed to the stain for extended periods of time, because such extended exposure may permit viable cells, as well as non-viable cells, to take up dye.
A cover slip was placed on a Bright Line hemacytometer, available from Howser Scientific, and 10 μl of the mixture from the tube was transferred to each chamber. Non-viable cells appear blue under a microscope. The viable cells in one of the 16-square corners of the hemacytometer were then counted. […]

E. coli = assay: colibacillosis infection model in broiler chickens, Trial A (Example 78); format: in vivo, chicken; details: 2 μg/chick subcutaneous
E. coli 19B = assay: bacterial clearance of E. coli from peripheral blood of neonatal chicks (Example 77); format: in vivo, chick; details: single subcutaneous injection of 25 μg, E. coli challenge, blood 14-18 hours post-challenge
Experimental: The compounds of Example 15 ((S)-ethyl 1-benzoyl-3-piperidinecarboxylate), Example 29 (1-benzoyl-3-butyrylpiperidine), Example 30 ((S)-ethyl 1-(2-thiopheneacetyl)-3-piperidinecarboxylate) and Example 68 ((S)-ethyl 1-benzyl-3-piperidinecarboxylate 1-methiodide), respectively, were tested to determine whether a single subcutaneous injection enhanced the bacterial clearance of E. coli from the peripheral blood of neonatal chicks. Bacterial clearance is a measurement of cell-mediated immunity, specifically, phagocyte function, in animals. An approved Animal Care and Use Committee protocol governed the activity in this experiment.
1 ml syringes with 21 g 1″ needles (Becton Dickinson and Company Franklin Lakes, N.J. 07417-1884); 1 ml syringe with 25 g ⅝″ needles (Becton Dickinson and Company Franklin Lakes, N.J. 07417-1884); EMB agar plates (Difco Laboratories, Becton Dickinson Microbiology Systems, Sparks, Md. 21152); Culture tubes (14 ml polystyrene round bottom, Becton Dickinson Labware, Franklin Lakes, N.J. 07417-1886); Dulbecco's Phosphate Buffered Saline w/o Mg^++ or Ca^++ (Gibco BRL, Life Technologies Rockville, Md. 20850). Peterson x Hubbard male chicks (day of hatch from a commercial hatchery) were utilized
160 chicks were divided into 6 groups: Group 1=Controls (acetate-buffered saline vehicle); Group 2=Compound of Example 15 ((S)-ethyl 1-benzoyl-3-piperidinecarboxylate); Group 3=Compound of Example 29 (1-benzoyl-3-butyrylpiperidine); Group 4=Compound of Example 30 ((S)-ethyl 1-(2-thiopheneacetyl)-3-piperidinecarboxylate); Group 5=Compound of Example 68 ((S)-ethyl 1-benzyl-3-piperidinecarboxylate 1-methiodide); and Group 6=environmental controls. Groups 1-5 contained 3 replicates of 10 chicks each and Group 6 contained 1 replicate of 10 chicks.
Day −2 Upon arrival, day of hatch chicks were randomized (10/group), and placed in a Petersime heated brooder battery unit (Petersime Incubator Company, Gettysburg, Ohio 45328). […] All chicks were given ad libitum access to a commercially available starter feed and water.
Day 0 11:00 AM. Five to ten colonies of E. coli 19B were selected from a fresh overnight blood agar plate (TSA II with 5% sheep blood, Becton Dickinson Microbiology Systems Cockeysville, Md. 21030) and placed into 100 ml Brain Heart Infusion broth (Difco Laboratories, Becton Dickinson Microbiology Systems Sparks, Md. 21152) in a flask. […]
Day 5 EMB plates were removed from the incubator and bacterial colonies were counted and recorded to calculate CFU/ml/chick.
Data was transformed to logio values, and analysis of variance was used to determine significant differences between the treatment groups and controls. Data was expressed as the percentage of enhancedbacterial clearance compared to E. coli-challenged controls. […]

[1] = chicken leukocytes, read at 72 hours

SMILES | minimal effective concentration (chicken leukocytes; [1]) [µg/mL] | MTC (Maximum Tolerable Concentration prior to causing cytotoxicity) (chicken leukocytes) [µg/mL] | % Colibacillosis-associated Mortality (E. coli) [%] | % Total Mortality (E. coli) | Average Weight Gain/Bird (E. coli) | Feed/Gain (E. coli) | % Enhanced Clearance Compared to Controls (E. coli 19B) | MSC (Minimum Stimulatory Concentration) (chicken leukocytes; [1]) [µg/mL]
CCOC(=O)C1CN(C(=O)NC)CCC1=O (centres unmarked) [Example 11, Ethyl 1-(N-Methylaminocarbonyl)-4-oxo-3-piperidinecarboxylate] | 0.001 | 1 | 14.0 | 16.5* % | 1.40 lb (635 g) | 1.35 |  | 
CCOC(=O)[C@H]1CCCN(C(=O)c2ccccc2)C1 [Example 15, (S)-Ethyl 1-Benzoyl-3-piperidinecarboxylate] | 0.1 | 10 |  |  |  |  | 34* % | 
CCCC(=O)C1CCCN(C(=O)c2ccccc2)C1 (centres unmarked) [Example 29, 1-Benzoyl-3-butyrylpiperidine] | 1 | 10 |  |  |  |  | 33* % | 
CCOC(=O)C1CCC[N@+](C)(Cc2ccccc2)C1.[I-] (stereo partly drawn) [Example 68, (S)-Ethyl 1-Benzyl-3-piperidinecarboxylate 1-methiodide] |  |  |  |  |  |  | 50* % | 1
